Like-named read-outs stand apart in the source and are kept apart here.
Experiments:
[1] = molecular target: T1, human glycine transporter 1b (GlyT1) (Homo sapiens, UniProt P48067); test: Inhibition of glycine transporter 1 in a cellular assay ([3H]glycine uptake into CHO cells); format: cell-based; details: for IC50: dose-response curve, internalization of radioactive glycine into the cells, read-out: IC50 (FIG. 1, GlyT1 inhibition assay); for IC50 for tritiated glycine uptake: CHO cells expressing human GlyT1b, pure compounds, mean±s.e.m.
T1 construct: expressed in transfected cells
T1 sequence (P48067 1-652 isoform P48067-3): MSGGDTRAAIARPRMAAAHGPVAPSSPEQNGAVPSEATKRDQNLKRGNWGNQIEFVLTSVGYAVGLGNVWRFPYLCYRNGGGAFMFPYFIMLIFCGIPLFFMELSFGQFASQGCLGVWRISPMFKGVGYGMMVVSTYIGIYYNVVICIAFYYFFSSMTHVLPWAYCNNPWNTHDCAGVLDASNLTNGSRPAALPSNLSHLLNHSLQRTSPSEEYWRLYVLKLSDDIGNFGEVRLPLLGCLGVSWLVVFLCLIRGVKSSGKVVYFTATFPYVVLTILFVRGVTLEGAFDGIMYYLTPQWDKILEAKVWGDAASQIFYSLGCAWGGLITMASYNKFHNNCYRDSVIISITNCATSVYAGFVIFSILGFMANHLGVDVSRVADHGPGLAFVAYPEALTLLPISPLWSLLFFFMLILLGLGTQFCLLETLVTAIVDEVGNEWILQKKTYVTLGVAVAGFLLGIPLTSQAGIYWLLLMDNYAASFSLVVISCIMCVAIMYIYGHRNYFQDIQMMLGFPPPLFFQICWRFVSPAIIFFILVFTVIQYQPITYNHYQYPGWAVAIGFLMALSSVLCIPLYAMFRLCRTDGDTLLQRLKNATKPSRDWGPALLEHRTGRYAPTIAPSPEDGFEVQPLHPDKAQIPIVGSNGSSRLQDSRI
Experimental: Cells were harvested by trypsinisation one day prior to the assay and were seeded in the above mentioned medium. […] Glycine uptake into the cells was determined by addition of 60 nM radio-labelled [^3H] glycine (Amersham Biosciences GE Healthcare, Slough, UK) and incubation for 30 minutes at room temperature. Following removal of unincorporated label by gentle washing three times with the above buffer, incorporated glycine was quantified by liquid scintillation counting. […] Louis, USA) were used as known inhibitors of GlyT1.

pMAPK = test: Hippocampal slice cultures, synaptic marker pMAPK (immunohistochemistry); format: cell-based, Wistar rats; details: 15 min treatment of slices after 48 h culture; compared to sister cultures treated with buffer
Experimental: (§1) Seven-day-old Wistar rats were decapitated using a guillotine. In less than 1 minute the skull was opened, the cerebral hemispheres were separated and transferred and both hippocampi were dissected and transferred into ice cold buffer containing 137 mM NaCl, 5 mM KCl, 0.85 mM Na2HPO4, 1.5 mM CaCl2, 0.66 mM KH2PO4, 0.28 mM MgSO4, 1 mM MgCl2, 2.7 mM NaHCO3, 1 mM Kynurenic acid and 0.6% D-glucose.
(§2) Transversal hippocampal slices (400 μm) were prepared using a vibrating blade microtome (VT1200S; Leica Microsystems (Schweiz) AG, Heerbrugg, Switzerland) in the same buffer. Hippocampal slices were individually placed on a membrane insert (Millicell Culture Plate Inserts, 0.4 μm) and cultivated at 35° C., 5% CO2, 95% humidity in a medium containing a 1:1 mixture of BME and MEM (both from Invitrogen) containing 25% heat-inactivated horse serum, 1× GlutaMAX, 1× Penicillin/Streptomycin, 0.6% glucose and 1 mM Kynurenic acid (Stoppini, Buchs and Muller (1991), J. Neurosci. Methods, 37(2), 173-82).
(§3) After 48 h in culture, synaptic NMDA receptors were activated by addition of thyme extract or its constituents for 15 min in 140 mM NaCl, 5 mM KCl, 1.3 mM CaCl2, 25 mM HEPES (pH 7.3), 33 mM D-glucose and 0.02 mM bicuculline methiodide. […] An additional positive control comprised the addition of 200 μM glycine to sister cultures. After the treatments, sections were washed and fixed for immunohistochemistry. Markers of enhanced synaptic activity, normally associated with long-term potentiation, representing an ex vivo model of learning and memory were quantitated (see Table 2, below).
(§4) Table 2. […]. The activation of any of these markers (or a combination thereof) is observed in classical LTP experiments.
(§5) Treatment of hippocampal cultures with thyme extracts as well as with both p-cymene and thymol induced biochemical markers typical for LTP (pCREB: activated form of the cAMP response element binding protein; pMAPK: activated form of the mitogen-activated protein kinase; GLUR1: cell surface presence of AMPA receptor 1).

pCREB = test: Hippocampal slice cultures, synaptic marker pCREB (immunohistochemistry); format: cell-based, Wistar rats; details: 15 min treatment of slices after 48 h culture; compared to sister cultures treated with buffer
Experimental: as §1, §2, §3, §4, §5

GluR1 = test: Hippocampal slice cultures, synaptic marker GluR1 (cell surface AMPA receptor 1); format: cell-based, Wistar rats; details: 15 min treatment of slices after 48 h culture; compared to sister cultures treated with buffer
Experimental: as §1, §2, §3, §4, §5

adult mice [2] = details: systemic administration, Kinney et al 2003; cited from earlier work
NMDA receptor [3] = details: mouse hippocampal slice preparation; Bergeron et al 1998; cited from earlier work
NMDA receptor [4] = details: rat hippocampal slice preparation; Bergeron et al 1998; cited from earlier work
adult mice [5] = details: systemic administration, Kinney et al 2003; cited from earlier work; remark: listed apart in the source

Compound | IC50 [1] [µM] | IC50 for tritiated glycine uptake [1] | pMAPK relative activation (pMAPK) | pCREB relative activation (pCREB) | GluR1 relative activation (symbol) (GluR1) | also measured
C=CC(C)(O)CCC=C(C)C (stereo not shown) [Linalool] | – | inactive | ± | ± | ± | –
Caryophyllene | – | inactive | ± | ± | – | –
Cc1ccc(C(C)C)cc1 [P-Cymene] | – | inactive | ++++ | ++ | ± | –
CN(CCC(Oc1ccc(-c2ccccc2)cc1)c1ccc(F)cc1)CC(=O)O (stereo not shown) [NFPS, N-[3-(4′-fluorophenyl)-3-(4′-phenylphenoxy)]propylsarcosine] | – | – | – | – | – | LTP in the dentate gyrus (adult mice [2]): increased; NMDA receptor responses in CA1 pyramidal cells (NMDA receptor [3]): enhanced; NMDA receptor responses in CA1 pyramidal cells (NMDA receptor [4]): enhanced; Prepulse inhibition of the acoustic startle response (adult mice [5]): enhanced

Second part, led by results:

IC50 [1] [µM] | IC50 for tritiated glycine uptake [1] | Compound | pMAPK relative activation (pMAPK) | pCREB relative activation (pCREB) | GluR1 relative activation (symbol) (GluR1) | also measured
0.0359 | – | CNCC(=O)O [Sarcosine, reference compound] | – | – | – | –
13.6 | – | Cc1ccc(C(C)C)c(O)c1 [Thymol] | – | ++++ | – | GluR1 relative activation (GluR1): 250-767%

From patent US20100240768A1, “NOVEL NUTRACEUTICALCOMPOSITIONS CONTAINING THYMOL AND/OR P-CYMENE OR PLANT EXTRACTS FOR COGNITION” (priority 2007, published 2010)
